Measurements: patent US20250387405A1 (priority 2021, published 2025)
Read-outs that look alike come from different tables or passages of the source.

Tests used:
[1] = assay type: physicochemical; details: for Content of CBT/% / Content of OXA/%: light; for crystal structure: light stability test
[2] = assay type: physicochemical; details: for Content of CBT/% / Content of OXA/%: 60° C.; for crystal structure: high temperature (60° C.) test
[3] = Equilibrium solubility in water by HPLC; details: for equilibrium solubility in water (25° C.): HPLC
[4] = test system: Human fibroblast-like synovial cell rheumatoid arthritis (HFLS-RA) cells; experiment: Proliferation of HFLS-RA cells; assay type: cell-based
Description: Human fibroblast-like synovial cell rheumatoid arthritis (HFLS-RA) cells were cultured in vitro and their proliferation was measured by quantifying the number of cells 48 h after treatment.

[5] = test system: Human MH7A synovial cells; experiment: Proliferation of MH7A cells; assay type: cell-based
Description: Human MH7A synovial cells were cultured in vitro and measured by quantifying the number of cells 48 h after treatment Proliferation.

[6] = 48 h after treatment, 1.563-100 μg/mL

Row | SMILES | Content of CBT/% ([1]; Day 0) | Content of CBT/% ([1]; Day 1) | Content of CBT/% ([1]; Day 3) | Content of CBT/% ([1]; Day 5) | Content of CBT/% ([1]; Day 10) | Content of CBT/% ([1]; Day 15) | crystal structure [2] | crystal structure [1] | Content of OXA/% ([1]; Day 0) | Content of OXA/% ([1]; Day 1) | Content of OXA/% ([1]; Day 3) | Content of OXA/% ([1]; Day 5) | Content of OXA/% ([1]; Day 10) | Content of OXA/% ([1]; Day 15) | Content of OXA/% ([2]; Day 0) | Content of OXA/% ([2]; Day 1) | Content of OXA/% ([2]; Day 3) | Content of OXA/% ([2]; Day 5) | Content of OXA/% ([2]; Day 10) | Content of OXA/% ([2]; Day 15) | other results
1 | CCN(CC)CCCC(C)Nc1ccnc2cc(Cl)ccc12.[NH2][Pt]1([NH2])[O]C(=O)C2(CCC2)C(=O)[O]1 (centres unmarked) [CBT-U72, carboplatin-chloroquine cocrystal] | 100% | 100% | 99.20% | 99.24% | 99.57% | 99.92% | unchanged |  |  |  |  |  |  |  |  |  |  |  |  |  | Content of CBT/% ([2]; Day 0): 100%; Content of CBT/% ([2]; Day 1): 100%; Content of CBT/% ([2]; Day 3): 99.66%; Content of CBT/% ([2]; Day 5): 99.84%; Content of CBT/% ([2]; Day 10): 99.67%; Content of CBT/% ([2]; Day 15): 99.97%
2 | OCC1OC(Oc2cc(O)cc(C=Cc3ccc(O)cc3)c2)C(O)C(O)C1O.[NH2][Pt]1([NH2])[O]C(=O)C2(CCC2)C(=O)[O]1 (centres unmarked) [CBT-PDT, carboplatin-polydatin cocrystal] | 100% | 100% | 100% | 99.60% | 99.72% | 99.29% | unchanged | unchanged |  |  |  |  |  |  |  |  |  |  |  |  | equilibrium solubility in aqueous solution compared with oxaliplatin or carboplatin, respectively ([3]; aqueous solution, versus parent platinum drug): higher; equilibrium solubility in water (25° C.) [3]: 16.2 mg/mL; Content of CBT/% ([2]; Day 0): 100%; Content of CBT/% ([2]; Day 1): 100%; Content of CBT/% ([2]; Day 3): 99.27%; Content of CBT/% ([2]; Day 5): 99.08%; Content of CBT/% ([2]; Day 10): 99.69%; Content of CBT/% ([2]; Day 15): 99.83%
3 | N.N.O=C([O-])C1(C(=O)[O-])CCC1.[Pt+2] [CBT, carboplatin, reference compound] | 100% | 99.37% | 99.84% | 99.31% | 98.29% | 98.82% | unchanged | unchanged |  |  |  |  |  |  |  |  |  |  |  |  | equilibrium solubility in water (25° C.) [3]: 12.7 mg/mL; Content of CBT/% ([2]; Day 0): 100%; Content of CBT/% ([2]; Day 1): 99.76%; Content of CBT/% ([2]; Day 3): 99.29%; Content of CBT/% ([2]; Day 5): 99.16%; Content of CBT/% ([2]; Day 10): 99.27%; Content of CBT/% ([2]; Day 15): 99.82%
4 | O=C1[O][Pt]2([NH]C3CCCCC3[NH]2)[O]C1=O.OCC1OC(Oc2cc(O)cc(C=Cc3ccc(O)cc3)c2)C(O)C(O)C1O (centres unmarked) [OXA-PDT, oxaliplatin-polydatin cocrystal] |  |  |  |  |  |  | unchanged | unchanged | 100% | 100% | 99.97% | 99.88% | 99.44% | 99.91% | 100% | 100% | 100% | 99.73% | 99.63% | 99.87% | 
5 | O=C1[O][Pt]2([NH][C@@H]3CCCC[C@H]3[NH]2)[O]C1=O [OXA, oxaliplatin, reference compound] |  |  |  |  |  |  | unchanged | unchanged | 100% | 98.87% | 99.32% | 96.89% | 99.45% | 98.01% | 100% | 98.36% | 99.33% | 99.18% | 99.09% | 98.21% | IC50, proliferation of HFLS-RA [4, 6]: 4.56 µg/mL; proliferation of HFLS-RA cells inhibited ([4]; FIG. 6): 99%; IC50, proliferation of MH7A [5, 6]: 8.91 µg/mL; proliferation of MH7A cells inhibited ([5]; FIG. 7): 99%
6 | O=C(O)C1(C(=O)O)CCC1.O=C1[O][Pt]2([NH]C3CCCCC3[NH]2)[O]C1=O (centres unmarked) [OXA-CBDA, oxaliplatin-1,1-cyclobutane dicarboxylic acid cocrystal] |  |  |  |  |  |  |  |  | 100% | 100% | 100% | 99.56% | 99.97% | 99.30% | 100% | 100% | 99.98% | 99.12% | 99.45% | 99.57% | 
7 | CCN(CC)CCCC(C)Nc1ccnc2cc(Cl)ccc12.O=C1[O][Pt]2([NH]C3CCCCC3[NH]2)[O]C1=O (centres unmarked) [OXA-U72, oxaliplatin-chloroquine cocrystal] |  |  |  |  |  |  | unchanged |  | 100% | 100% | 99.21% | 99.64% | 99.33% | 99.64% | 100% | 100% | 99.38% | 99.46% | 99.33% | 99.46% | 
